The values that follow come from ChEMBL document CHEMBL3232975, “Using ovality to predict nonmutagenic, orally efficacious pyridazine amides as cell specific spleen tyrosine kinase inhibitors” (J Med Chem, 2014).

Data set [1] can be described thus: Apparent terminal half life in mouse at 1 mg/kg, iv. The class given is ADME, organism-based. On the set-up: dose 1 mg/kg, route intravenous. The settings on record: in vivo, read-out: betat1/2(app) (converted).
A short description of data set [2]: Volume of distribution at steady state in mouse at 1 mg/kg, iv. The format is ADME, organism-based. Also on record: dose 1 mg/kg, route intravenous. The settings on record: in vivo, read-out: Vdss.
Data set [3] can be described thus: Total plasma clearance in mouse at 1 mg/kg, iv. The format is ADME, organism-based. On the set-up: dose 1 mg/kg, route intravenous.
For data set [4], the system named is Mus musculus. The experiment in a line: Dose-normalized AUC in mouse at 10 to 20 mg/kg, po. The class given is ADME, organism-based. The settings on record: in vivo. On the set-up: dose 10-20 mg/kg, route oral.
A short description of data set [5]: Oral bioavailability in mouse at 10 to 20 mg/kg. The format is ADME, organism-based. The settings on record: in vivo.
Data set [6] can be described thus: Metabolic stability in rat liver microsomes. The format is ADME. The settings on record: read-out: Stability. For orientation: Liver microsomes are vesicles of endoplasmic reticulum, rich in cytochrome P450 enzymes.
Data set [7] is described as follows: Metabolic stability in human liver microsomes. The format is ADME. The settings on record: read-out: Stability.
A short description of data set [8]: Solubility of the compound by LYSA. The class given is physicochemical.
Data set [9] in a line: Volume of distribution at steady state in mouse at 0.5 mg/kg, iv. The format is ADME, organism-based. The settings on record: in vivo, read-out: Vdss. Also on record: dose 0.5 mg/kg, route intravenous.
The subject of data set [10] is Mus musculus. Kind of data set: Dose-normalized AUC in mouse at 30 mg/kg, po. The class given is ADME, organism-based. Also on record: dose 30 mg/kg, route oral. The settings on record: in vivo.
The nature of data set [11]: Oral bioavailability in mouse at 30 mg/kg. The settings on record: in vivo. The format is ADME, organism-based.
A short description of data set [12]: Total plasma clearance in mouse at 0.5 mg/kg, iv. The format is ADME, organism-based. On the set-up: dose 0.5 mg/kg, route intravenous.
A short description of data set [13]: Cmax in mouse at 30 mg/kg, po. The format is ADME, organism-based. On the set-up: dose 30 mg/kg, route oral. The settings on record: in vivo.
Data set [14] is described as follows: Apparent terminal half life in mouse at 0.5 mg/kg, iv. The class given is ADME, organism-based. On the set-up: dose 0.5 mg/kg, route intravenous. The settings on record: in vivo, read-out: betat1/2(app) (converted).
A short description of data set [15]: Oral bioavailability in mouse at 5 mg/kg. The class given is ADME, organism-based. The settings on record: in vivo.
Data set [16] is described as follows: Cmax in mouse at 5 mg/kg, po. The format is ADME, organism-based. Also on record: dose 5 mg/kg, route oral. The settings on record: in vivo.
For data set [17], the system named is Mus musculus. The experiment in a line: Dose-normalized AUC in mouse at 5 mg/kg, po. The format is ADME, organism-based. On the set-up: dose 5 mg/kg, route oral. The settings on record: in vivo.

Converted amounts (≈) assume the structure as drawn.

As for `COc1ccc(Nc2cc(N[C@@H]3CCOC[C@@H]3N)nnc2C(N)=O)nc1C(C)C`, the half-life in data set [1] is 1.96 h. The Vd in data set [2] amounted to 3.67 L/kg. In data set [3], the clearance was 2.53 L/h/kg. Further, the AUC/dose in the data set with Mus musculus [4] is on record as 365 ng/mL.hr/(mg/kg). The compound further showed a bioavailability in data set [5] of 92%.
As for `Cc1cccc(Nc2cc(N[C@@H]3CCCC[C@@H]3N)nnc2C(N)=O)n1`, the CLhep predicted in data set [6] was 1.62 L/h/kg; in [7] it was 0.12 L/h/kg. This compound also yielded a solubility in data set [8] of 0.471 mg/mL (≈ 1380 µM).
Regarding `COc1ccc(Nc2cc(NCCN)nnc2C(N)=O)nc1C(C)C`, the half-life in [1] is 1.74 h. In [2], the Vd came out at 1.4 L/kg. The clearance in data set [3] is 1 L/h/kg. Further, in the data set with Mus musculus [4], the AUC/dose was 609 ng/mL.hr/(mg/kg). This compound also had a bioavailability in [5] of 61%.
On to `Cc1nc(Nc2cc(N[C@@H]3CCCC[C@@H]3N)nnc2C(N)=O)ccc1F`, for which the CLhep predicted was 1.08 L/h/kg in data set [6] and 0.18 L/h/kg in data set [7]. Further, the Vd in data set [9] was 1.44 L/kg. Also, the AUC/dose in the data set on Mus musculus [10] was 568 ng/mL.hr/(mg/kg). The same compound showed a bioavailability in data set [11] of 20%. This compound showed a clearance in data set [12] of 0.334 L/h/kg. The Cmax in data set [13] turned out to be 1.56 µg/mL. This compound returned a solubility in data set [8] of 0.39 mg/mL (≈ 1090 µM). The half-life in data set [14] was 3.26 h.
`Cc1nc(Nc2cc(N[C@@H]3CCCC[C@@H]3N)nnc2C(N)=O)ccc1Cl`: the CLhep predicted is 1.2 L/h/kg in [6] and 0.42 L/h/kg in [7]. The bioavailability in data set [15] stood at 51%; in data set [11], 40%. The Vd in data set [9] was found to be 2.74 L/kg. Besides, the AUC/dose with Mus musculus [10] is 9753 ng/mL.hr/(mg/kg); in the data set with Mus musculus [17], 970 ng/mL.hr/(mg/kg). In addition, the clearance in data set [12] came out at 0.519 L/h/kg. The peak concentration (Cmax) in data set [16] amounted to 0.386 µg/mL; in data set [13], 0.144 µg/mL. The compound also registered a solubility in data set [8] of 0.345 mg/mL (≈ 918 µM). Moreover, the half-life in data set [14] was 3.92 h.
As to `Cc1ccc(Nc2cc(N[C@@H]3CCCC[C@@H]3N)nnc2C(N)=O)nc1C`, the CLhep predicted in [6] was 1.38 L/h/kg; in data set [7], 0.06 L/h/kg. For the same compound, the AUC/dose in the data set with Mus musculus [17] is reported as 25.9 ng/mL.hr/(mg/kg). Besides, in data set [8], the solubility is 0.329 mg/mL (≈ 926 µM).
In the case of `COc1ccc(Nc2cc(N[C@@H]3CCCC[C@@H]3N)nnc2C(N)=O)nc1OC`, the CLhep predicted in data set [6] is 0.84 L/h/kg; in data set [7], 0.12 L/h/kg. In addition, the concentration in solution in data set [8] (solubility) was 0.522 mg/mL (≈ 1350 µM).
For the compound `NC(=O)c1nnc(N[C@@H]2CCCC[C@@H]2N)cc1Nc1ccc2c(n1)CCC2`, the CLhep predicted in [6] was 1.62 L/h/kg; in [7], 0.12 L/h/kg. Moreover, the solubility in data set [8] is 0.404 mg/mL (≈ 1100 µM).
Turning to `CCCc1nc(Nc2cc(NCCN)nnc2C(N)=O)ccc1OC`, in data set [1], the half-life was 1.28 h. The Vd in [2] is 0.63 L/kg. In data set [3], this compound came in with a clearance of 0.511 L/h/kg. For the same compound, the AUC/dose with Mus musculus [4] is reported as 1470 ng/mL.hr/(mg/kg). In data set [5], this compound had a bioavailability of 75%.

The term clearance denotes the rate of elimination divided by the concentration. A high value points to a high capacity for elimination. By bioavailability is commonly meant the share of a dose that reaches the circulation, judged against a reference dose that is usually intravenous. The solubility is the dissolved amount per volume that the medium holds. Higher therefore signals much dissolved substance. Broadly, the Cmax is the maximum level reached in the sampled fluid or tissue.
